Primed or numbered codes have the meaning given here. *: point of attachment. Bz′ = not defined here; NHPr = CCCN*; NHNH2 = NN*; NHOH = ON*
Legend:
[1] = test system: osteoarthritis of the knees; test: Example 94 (second): osteoarthritic knees, intra-articular injection of N-Bz hydrazide; assay type: in vivo, human; conditions: 0.08% (0.8 mg/ml) in water, 1 ml per knee intra-articular
Protocol: A subject with osteoarthritis of the knees that progressively worsened over the years, evaluated the analgesic effectiveness of many topical preparations of tetrapeptide derivatives of the invention on numerous occasions. After such experiences they decided to self-inject […] knees with a sterile aqueous preparation of N-Bz-Tyr-Pro-Phe-Phe-NHNH2 (SEQ ID NO: 91) at a concentration of 0.08% (0.8 mg/ml) in water. Each knee was injected with 1 ml (0.8 mg) of the preparation via the sub-patellar route. […] The knees felt more comfortable than usual after 24 hours. The improvement from […] was judged to be more than 90% by clinical evaluation.

[2] = test system: psoriatic arthritis, fingers and wrists; test: Example 95: comparative analgesic efficacy on pain of psoriatic arthritis, topical; assay type: in vivo, human; conditions: for pain relief: 1% (w/v) in WEP442, topical to fingers and wrists
Source text: […] Treatment of the subject over the years included methotrexate and other antimetabolites, and in recent years, drugs known as biologic medications. While these agents provided intervals of relief, none provided lasting benefit. Over the past decade, painful arthritis developed in both hands and knees, and in numerous joints of the fingers. Three related tetrapeptide derivatives, 1% (w/v) in vehicle WEP442, were topically applied to the fingers and wrists of both hands one at a time. […] Analgesic efficacy was rated by the subject as 75%.

headache = test: Example 52: analgesic effect on headache; assay type: in vivo, human; conditions: two 500 mg tablets, oral
Source text: At 5:30 p.m., the headache pain was becoming more intense, at which time they topically applied a composition containing 1% (w/v) of N-Pg-Tyr-Pro-Phe-Phe-NH2 (SEQ ID NO: 44) in WEP442 to the entire forehead and temporal areas. […] There was no recurrence of symptoms over the next 3 days of follow-up time.

[3] = test system: trapezius muscle strain pain; test: Example 81: analgesic effect on pain from trapezius muscle strain, topical; assay type: in vivo, human; conditions: 0.7% (w/v) in propylene glycol: triethyl citrate : water (4:4:2)
Source text: A subject with persistent pain localized to a site medial to the upper right scapula (shoulder blade) topically applied to that site a composition containing 0.7% (w/v) of N-Ac-Tyr-Pro-Phe-Phe-NHCH3(SEQ ID NO: 24) in propylene glycol: triethyl citrate : water (4:4:2 ratio).

[4] = test system: osteoarthritis of the fingers and wrists; test: Example 83: analgesic effect on osteoarthritic pain, topical; assay type: in vivo, human; conditions: 0.8% (w/v) in WEP442, topical
Protocol: A subject had osteoarthritis of the fingers and wrists for about 10 years, with substantial worsening over the past several months. Symptoms included painful finger joints and wrists. The pain was much worsened by flexion, so that making a first was too painful to try. Moreover, complete flexion had not been possible because of actual physical limitations. Anatomical signs of their disorder, e.g., enlarged finger joints, were conspicuous in their case. After 36 hours of no topical or systemic use of any analgesic agent, pain in the fingers and wrists was again present and substantial, so much so that they were unable to slice vegetables with a knife.

[5] = test system: psoriatic arthritis of finger joints; test: Example 84: analgesic effect on pain from psoriatic arthritis, topical; assay type: in vivo, human; conditions: 0.8% (w/v) in WEP442, topical
Source text: A subject […], had extensive plaque psoriasis and painful arthritis of the interphalangeal joints of both index fingers, left thumb and left 5th finger, which compromised their work performance as an esthetician. The subject topically applied a solution composition containing 0.8% (w/v) of N-Ac-Tyr-Pro-Phe-Phe-NHCH3 (SEQ ID NO: 24) in WEP442 to their painful fingers.

lower back (lumbar) pain = test: Example 85: analgesic effect on lower back pain, topical; assay type: in vivo, human
Protocol: A subject had lower back (lumbar) pain associated with sitting in a crouched position at a low work table for about 3 hours. Upon their sitting up straight, the pain became more pronounced and persisted as they walked around for 15-20 minutes.

post-sunburn pain = test: Example 86: analgesic effect on sunburn pain, topical; assay type: in vivo, human
Protocol: A subject, experienced post-sunburn pain at the frontal hairline of the scalp, an area not earlier covered by sunscreen lotion at time of sun exposure several days earlier. They vigorously rubbed the area later to remove lingering skin scales, which caused irritation and pain. […] Relief lasted for 4 hours. […] The condition was then resolved with the use of a hydrating skin cream.

[6] = test system: psoriatic arthritis pain, fingers and wrists; test: Example 48: comparative analgesic efficacy, psoriatic arthritis pain of fingers and wrists, topical; assay type: in vivo, human; conditions: 1% (w/v) in WEP442, topical
Source text: […] Treatment of the subject over the years included methotrexate and other antimetabolites, and in recent years drugs known as biologic medications. While these agents have provided intervals of relief, none has provided a lasting benefit. Over the past decade, painful arthritis developed in both wrists and in numerous joints of the fingers. Four related tetrapeptide derivatives, 1% (w/v) solution compositions in vehicle WEP442, one at a time, were topically applied to the fingers and wrists of both hands. […] Efficacy was rated by the subject as 4+. • (B) N-Ac-Tyr-Pro-Phe-Phe-NHNH2 (SEQ ID NO: 31) provided slow relief of pain, i.e. within about 10 minutes. […] Analgesic efficacy was judged by the subject to be 0 to 1+.

hangover headache = test: Example 54: analgesic effect on hangover headache, topical; assay type: in vivo, human; conditions: 1% (w/v) in WEP442, topical
Source text: A subject with a “splitting” headache the morning after heavy drinking at a party the night before, topically applied to the entire head and neck a composition containing 1% (w/v) of N-Ac-Tyr-Pro-Phe-Phe-NHNH2 (SEQ ID NO: 31) in WEP442. […] They then drove their car approximately 90 miles to their residence.

sinus headaches = test: Example 55: analgesic effect on headache due to sinusitis, topical; assay type: in vivo, human; conditions: 1% (w/v) in WEP442, topical
Source text: A subject, suffered from chronic recurrent “sinus headaches.” At the time of one such headache, they topically applied to the entire forehead and, with their eyes closed, to the sites overlying the frontal and maxillary sinuses a composition containing 1% (w/v) of N-Ac-Tyr-Pro-Phe-Phe-NHNH2 (SEQ ID NO: 31) in WEP442.

thermal burn of finger = test: Example 56: analgesic effect on finger pain caused by thermal burn, topical; assay type: in vivo, human; conditions: 1% (w/v) in WEP442, topical
Source text: A subject, suffered a thermal burn of their right fourth finger from touching a hot kitchen plate. […] Six days later, the burned site appeared normal.

migraine = test: Example 80: analgesic effect on pain and nausea from migraine headache, topical; assay type: in vivo, human; conditions: 0.5% (w/v) in WEP442, topical at onset of symptoms
Source text: A subject with a history of recurrent attacks of migraine, was provided a solution composition containing 0.5% (w/v) of N-Pg-Tyr-Pro-Phe-Phe-NH2 (SEQ ID NO: 44) in WEP442 and a solution composition containing 0.5% (w/v) of N-Ac-Tyr-Pro-Phe-Phe-NHNH2 (SEQ ID NO: 31) in WEP442. […] Sensations of nausea that might have lingered went away after several minutes following a second topical application.

[7] = test system: arthritic pain of wrists and fingers (psoriasis); test: Example 61: comparative analgesic efficacy in psoriatic arthritis of wrists and fingers, topical; assay type: in vivo, human; conditions: 1% (w/v) in WEP442, topical
Source text: A subject with severe generalized psoriasis compared the topical efficacy of solution compositions of nine (9) tetrapeptide derivatives on arthritic pain of their wrists and fingers. All of the solution compositions contained 1% (w/v) of tetrapeptide derivative in WEP442.

mu receptors = mu receptors (Mus musculus, UniProt P42866); conditions: mouse brain; cited from earlier work
[8] = test system: rat rostral ventrolateral medulla neurons; conditions: in vitro; cited from earlier work
[9] = rats injected with 18 pmol; cited from earlier work

Chain of mu receptors (P42866 whole entry): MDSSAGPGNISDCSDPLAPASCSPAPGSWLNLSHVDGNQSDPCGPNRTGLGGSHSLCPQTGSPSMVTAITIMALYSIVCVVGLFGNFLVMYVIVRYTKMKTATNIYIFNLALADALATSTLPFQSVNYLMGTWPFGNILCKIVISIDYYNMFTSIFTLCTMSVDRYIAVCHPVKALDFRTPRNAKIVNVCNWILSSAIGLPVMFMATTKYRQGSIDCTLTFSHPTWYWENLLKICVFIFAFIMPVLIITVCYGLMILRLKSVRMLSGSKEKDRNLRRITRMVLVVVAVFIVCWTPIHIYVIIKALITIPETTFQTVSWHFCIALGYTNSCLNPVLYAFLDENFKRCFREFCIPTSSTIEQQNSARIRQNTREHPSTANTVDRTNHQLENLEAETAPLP

With `NNC(=O)[C@H](Cc1ccccc1)NC(=O)[C@H](Cc1ccccc1)NC(=O)[C@@H]1CCCN1C(=O)[C@H](Cc1ccc(O)cc1)NC(=O)c1ccccc1` [N-Bz-Tyr-Pro-Phe-Phe-NHNH2] the “discomfort from the injections” value [1] was “no discomfort from the injections”, the “duration of pain relief” value [1] was 11 h and the “improvement by clinical evaluation” value [1] was “more than 90%”. The “pains in both knees” value [1] was “gradually disappeared”, the “analgesic efficacy rated by the subject” value ([2]; 1% (w/v) in WEP442, topical) was 100% and the “duration of pain relief” value ([2]; 1% (w/v) in WEP442, topical) was “about 24 hours”. For the same compound, the pain relief [2] was “rapid complete relief of pain”.
For `CC(=O)Nc1ccc(O)cc1` [acetaminophen, reference compound], the pain relief (headache) was “slight relief of pain”.
In the case of “N-Ac-Tyr-Pro-Phe-Phe-NHCH2CH2CH3 (Ac-YPFF-NHPr; SMILES CCCNC(=O)[C@H](Cc1ccccc1)NC(=O)[C@H](Cc1ccccc1)NC(=O)[C@@H]1CCCN1C(=O)[C@H](Cc1ccc(O)cc1)NC(C)=O)”, the “analgesic efficacy rated by the subject” value ([2]; 1% (w/v) in WEP442, topical) is reported as 75%, the “duration of pain relief” value ([2]; 1% (w/v) in WEP442, topical) is reported as “less than 6 hours” and the “time to pain relief” value ([2]; 1% (w/v) in WEP442, topical) is reported as “more than 5 minutes”. For the same compound, the pain relief [2] was “slower relief of pain”.
In the case of “N-Ac-Tyr-Pro-Phe-Phe-NHCH3 (Ac-YPFF-NHMe; SMILES CNC(=O)[C@H](Cc1ccccc1)NC(=O)[C@H](Cc1ccccc1)NC(=O)[C@@H]1CCCN1C(=O)[C@H](Cc1ccc(O)cc1)NC(C)=O)”, the “duration of pain relief” value [3] is reported as “about 4 hours”, the pain relief [3] is reported as “Complete relief of pain” and the “time to pain relief” value [3] is reported as at most 2 min. The “duration of pain relief” value [4] was “about 17 hours”, the pain relief [4] was “completely relieved all pain” and the “time to pain relief” value [4] was 5 to 7 min. The “duration of pain relief” value [5] was “about 7 hours”, the pain relief [5] was “completely relieved” and the “time to pain relief” value [5] was 3 to 4 min. For the same compound, the recurrence (lower back (lumbar) pain; 0/8% (w/v) in WEP442, topical) was “did not return”, the “time to pain relief” value (lower back (lumbar) pain; 0/8% (w/v) in WEP442, topical) was at most 5 min and the pain relief (lower back (lumbar) pain; (w/v) in WEP442, topical) was “complete resolution of all pain in the lower back”. The pain relief (post-sunburn pain; 0.8% (w/v) in WEP442, several applications over the next 24 hours) was “complete relief of pain”, the duration of relief (post-sunburn pain; 0.8% (w/v) in WEP442, topical) was 4 h and the pain relief (post-sunburn pain; 0.8% (w/v) in WEP442, topical) was “almost immediate relief of the painful discomfort”.
In the case of “N-Ac-Tyr-Pro-Phe-Phe-NHNH2 (Ac-YPFF-NHNH2; SMILES CC(=O)N[C@@H](Cc1ccc(O)cc1)C(=O)N1CCC[C@H]1C(=O)N[C@@H](Cc1ccccc1)C(=O)N[C@@H](Cc1ccccc1)C(=O)NN)”, the pain relief [6] is reported as “Almost complete relief of pain”, the “time to pain relief” value [6] is reported as at most 10 min and the pain relief (hangover headache) is reported as “the headache ceased”. For the same compound, the “time to pain relief” value (hangover headache) was 1 to 2 min, the pain relief (sinus headaches) was “headache completely subsided” and the “time to pain relief” value (sinus headaches) was at most 10 min. For the same compound, the “blister at burned site” value (thermal burn of finger) was “did not developed a blister”, the pain relief (thermal burn of finger) was “completely relieved the pain almost instantly” and the pain relief (migraine) was “complete relief of pain”.
In the case of “N-Ac-Tyr-Pro-Phe-Phe-OEt (Ac-YPFF-OEt; SMILES CCOC(=O)[C@H](Cc1ccccc1)NC(=O)[C@H](Cc1ccccc1)NC(=O)[C@@H]1CCCN1C(=O)[C@H](Cc1ccc(O)cc1)NC(C)=O)”, the “efficacy by clinical evaluation” value [7] is reported as 0.
For “N-Bz-Tyr-Pro-Phe-Phe-NHOH ({Bz′}-YPFF-{NHOH})”, the “analgesic efficacy rated by the subject” value ([2]; 1% (w/v) in WEP442, topical) was 90%, the “duration of pain relief” value ([2]; 1% (w/v) in WEP442, topical) was “about 10 hours” and the pain relief [2] was “rapid complete relief of pain”.
With “N-Pg-Tyr-Pro-Trp-Phe-NH2 [reference compound]” the pain relief [6] was “slow, minimal relief of pain”.
In the case of “Tyr-Pro-Trp-Phe-NH2 [reference compound]”, the “affinity for mu receptors” value (mu receptors) is given as “very high affinity”, the “spontaneous discharge of the medullary neurons” value [8] is given as “significantly inhibited” and the “desensitization of the motor response” value [9] is given as “did not induce rapid desensitization of the motor response”.
